# Article PMC11981937 (Nature, 2025)
# Where “and” joins values, the source holds several entries; their conditions need not be identical. Equal entries are not always repeated.
# Assays:
# [1] = In vivo mortality (stray panel in source data sheet Fig. 3d)
# [2] = type: in vivo, Syrian golden hamster; conditions: Molnupiravir 200 mpk BID, pre-exposure
# SARS-CoV-2 B1 = type: in vivo, Syrian golden hamster; conditions: pre-exposure
smiles,measurement,setting,value
"C[C@@]1(O)[C@H](O)[C@@H](CO)O[C@H]1n1ccc(N)nc1=O [2'CMC, reference compound]",% Survival,"[1]; 2'CMC, d p.i. 0",100%
same,% Survival,"[1]; 2'CMC, d p.i. 1",100%
same,% Survival,"[1]; 2'CMC, d p.i. 2",100%
same,% Survival,"[1]; 2'CMC, d p.i. 3",100%
same,% Survival,"[1]; 2'CMC, d p.i. 4",100%
same,% Survival,"[1]; 2'CMC, d p.i. 5",100%
same,% Survival,"[1]; 2'CMC, d p.i. 6",100%
same,% Survival,"[1]; 2'CMC, d p.i. 7",100%
same,% Survival,"[1]; 2'CMC, d p.i. 8",100%
same,% Survival,"[1]; 2'CMC, d p.i. 9",100%
same,% Survival,"[1]; 2'CMC, d p.i. 10",100%
same,% Survival,"[1]; 2'CMC, d p.i. 11",100%
same,% Survival,"[1]; 2'CMC, d p.i. 12",100%
same,% Survival,"[1]; 2'CMC, d p.i. 13",90%
same,% Survival,"[1]; 2'CMC, d p.i. 14",80%
same,% Survival,"[1]; 2'CMC, d p.i. 15",80%
same,% Survival,"[1]; 2'CMC, d p.i. 16",80%
same,% Survival,"[1]; 2'CMC, d p.i. 17",80%
same,% Survival,"[1]; 2'CMC, d p.i. 18",60%
same,% Survival,"[1]; 2'CMC, d p.i. 19",60%
same,% Survival,"[1]; 2'CMC, d p.i. 20",60%
same,% Survival,"[1]; 2'CMC, d p.i. 21",60%
same,% Survival,"[1]; 2'CMC, d p.i. 22",60%
same,% Survival,"[1]; 2'CMC, d p.i. 23",60%
same,% Survival,"[1]; 2'CMC, d p.i. 24",50%
same,% Survival,"[1]; 2'CMC, d p.i. 25",50%
COc1cc(N[C@H](C(=O)c2c[nH]c3ccc(OC(F)(F)F)cc23)c2ccc(Cl)cc2OC)cc(S(C)(=O)=O)c1 [JNJ-1802],% Survival,"[1]; 802R_0.3, BID, d p.i. 0",100%
same,% Survival,"[1]; 802R_0.3, BID, d p.i. 1",100%
same,% Survival,"[1]; 802R_0.3, BID, d p.i. 2",100%
same,% Survival,"[1]; 802R_0.3, BID, d p.i. 3",100%
same,% Survival,"[1]; 802R_0.3, BID, d p.i. 4",100%
same,% Survival,"[1]; 802R_0.3, BID, d p.i. 5",100%
same,% Survival,"[1]; 802R_0.3, BID, d p.i. 6",100%
same,% Survival,"[1]; 802R_0.3, BID, d p.i. 7",100%
same,% Survival,"[1]; 802R_0.3, BID, d p.i. 8",100%
same,% Survival,"[1]; 802R_0.3, BID, d p.i. 9",100%
same,% Survival,"[1]; 802R_0.3, BID, d p.i. 10",100%
same,% Survival,"[1]; 802R_0.3, BID, d p.i. 11",100%
same,% Survival,"[1]; 802R_0.3, BID, d p.i. 12",100%
same,% Survival,"[1]; 802R_0.3, BID, d p.i. 13",100%
same,% Survival,"[1]; 802R_0.3, BID, d p.i. 14",100%
same,% Survival,"[1]; 802R_0.3, BID, d p.i. 15",100%
same,% Survival,"[1]; 802R_0.3, BID, d p.i. 16",100%
same,% Survival,"[1]; 802R_0.3, BID, d p.i. 17",90%
same,% Survival,"[1]; 802R_0.3, BID, d p.i. 18",90%
same,% Survival,"[1]; 802R_0.3, BID, d p.i. 19",90%
same,% Survival,"[1]; 802R_0.3, BID, d p.i. 20",90%
same,% Survival,"[1]; 802R_0.3, BID, d p.i. 21",90%
same,% Survival,"[1]; 802R_0.3, BID, d p.i. 22",90%
same,% Survival,"[1]; 802R_0.3, BID, d p.i. 23",90%
same,% Survival,"[1]; 802R_0.3, BID, d p.i. 24",90%
same,% Survival,"[1]; 802R_0.3, BID, d p.i. 25",90%
same,% Survival,"[1]; 802R_1, BID, d p.i. 0",100%
same,% Survival,"[1]; 802R_1, BID, d p.i. 1",100%
same,% Survival,"[1]; 802R_1, BID, d p.i. 2",100%
same,% Survival,"[1]; 802R_1, BID, d p.i. 3",100%
same,% Survival,"[1]; 802R_1, BID, d p.i. 4",100%
same,% Survival,"[1]; 802R_1, BID, d p.i. 5",100%
same,% Survival,"[1]; 802R_1, BID, d p.i. 6",100%
same,% Survival,"[1]; 802R_1, BID, d p.i. 7",100%
same,% Survival,"[1]; 802R_1, BID, d p.i. 8",100%
same,% Survival,"[1]; 802R_1, BID, d p.i. 9",100%
same,% Survival,"[1]; 802R_1, BID, d p.i. 10",100%
same,% Survival,"[1]; 802R_1, BID, d p.i. 11",100%
same,% Survival,"[1]; 802R_1, BID, d p.i. 12",100%
same,% Survival,"[1]; 802R_1, BID, d p.i. 13",100%
same,% Survival,"[1]; 802R_1, BID, d p.i. 14",100%
same,% Survival,"[1]; 802R_1, BID, d p.i. 15",100%
same,% Survival,"[1]; 802R_1, BID, d p.i. 16",100%
same,% Survival,"[1]; 802R_1, BID, d p.i. 17",100%
same,% Survival,"[1]; 802R_1, BID, d p.i. 18",100%
same,% Survival,"[1]; 802R_1, BID, d p.i. 19",100%
same,% Survival,"[1]; 802R_1, BID, d p.i. 20",100%
same,% Survival,"[1]; 802R_1, BID, d p.i. 21",100%
same,% Survival,"[1]; 802R_1, BID, d p.i. 22",100%
same,% Survival,"[1]; 802R_1, BID, d p.i. 23",100%
same,% Survival,"[1]; 802R_1, BID, d p.i. 24",100%
same,% Survival,"[1]; 802R_1, BID, d p.i. 25",100%
same,% Survival,"[1]; 802R_3, BID, d p.i. 0",100%
same,% Survival,"[1]; 802R_3, BID, d p.i. 1",100%
same,% Survival,"[1]; 802R_3, BID, d p.i. 2",100%
same,% Survival,"[1]; 802R_3, BID, d p.i. 3",100%
same,% Survival,"[1]; 802R_3, BID, d p.i. 4",100%
same,% Survival,"[1]; 802R_3, BID, d p.i. 5",100%
same,% Survival,"[1]; 802R_3, BID, d p.i. 6",100%
same,% Survival,"[1]; 802R_3, BID, d p.i. 7",100%
same,% Survival,"[1]; 802R_3, BID, d p.i. 8",100%
same,% Survival,"[1]; 802R_3, BID, d p.i. 9",100%
same,% Survival,"[1]; 802R_3, BID, d p.i. 10",100%
same,% Survival,"[1]; 802R_3, BID, d p.i. 11",100%
same,% Survival,"[1]; 802R_3, BID, d p.i. 12",100%
same,% Survival,"[1]; 802R_3, BID, d p.i. 13",100%
same,% Survival,"[1]; 802R_3, BID, d p.i. 14",100%
same,% Survival,"[1]; 802R_3, BID, d p.i. 15",100%
same,% Survival,"[1]; 802R_3, BID, d p.i. 16",100%
same,% Survival,"[1]; 802R_3, BID, d p.i. 17",100%
same,% Survival,"[1]; 802R_3, BID, d p.i. 18",100%
same,% Survival,"[1]; 802R_3, BID, d p.i. 19",100%
same,% Survival,"[1]; 802R_3, BID, d p.i. 20",100%
same,% Survival,"[1]; 802R_3, BID, d p.i. 21",100%
same,% Survival,"[1]; 802R_3, BID, d p.i. 22",90%
same,% Survival,"[1]; 802R_3, BID, d p.i. 23",90%
same,% Survival,"[1]; 802R_3, BID, d p.i. 24",80%
same,% Survival,"[1]; 802R_3, BID, d p.i. 25",80%
same,% Survival,"[1]; 802R_10, BID, d p.i. 0",100%
same,% Survival,"[1]; 802R_10, BID, d p.i. 1",100%
same,% Survival,"[1]; 802R_10, BID, d p.i. 2",100%
same,% Survival,"[1]; 802R_10, BID, d p.i. 3",100%
same,% Survival,"[1]; 802R_10, BID, d p.i. 4",100%
same,% Survival,"[1]; 802R_10, BID, d p.i. 5",100%
same,% Survival,"[1]; 802R_10, BID, d p.i. 6",100%
same,% Survival,"[1]; 802R_10, BID, d p.i. 7",100%
same,% Survival,"[1]; 802R_10, BID, d p.i. 8",100%
same,% Survival,"[1]; 802R_10, BID, d p.i. 9",100%
same,% Survival,"[1]; 802R_10, BID, d p.i. 10",100%
same,% Survival,"[1]; 802R_10, BID, d p.i. 11",100%
same,% Survival,"[1]; 802R_10, BID, d p.i. 12",100%
same,% Survival,"[1]; 802R_10, BID, d p.i. 13",100%
same,% Survival,"[1]; 802R_10, BID, d p.i. 14",100%
same,% Survival,"[1]; 802R_10, BID, d p.i. 15",80%
same,% Survival,"[1]; 802R_10, BID, d p.i. 16",80%
same,% Survival,"[1]; 802R_10, BID, d p.i. 17",80%
same,% Survival,"[1]; 802R_10, BID, d p.i. 18",80%
same,% Survival,"[1]; 802R_10, BID, d p.i. 19",80%
same,% Survival,"[1]; 802R_10, BID, d p.i. 20",80%
same,% Survival,"[1]; 802R_10, BID, d p.i. 21",80%
same,% Survival,"[1]; 802R_10, BID, d p.i. 22",80%
same,% Survival,"[1]; 802R_10, BID, d p.i. 23",80%
same,% Survival,"[1]; 802R_10, BID, d p.i. 24",80%
same,% Survival,"[1]; 802R_10, BID, d p.i. 25",80%
"CC(C)C(=O)OC[C@H]1O[C@@H](n2ccc(NO)nc2=O)[C@H](O)[C@@H]1O [molnupiravir, reference compound]","% body weight change compared to day 0, Avg","[2]; day 4 vs day 0, group average",3.04%
same,% body weight change compared to day 0,"[2]; day 4 vs day 0, individual animals",2.6% and 2.4% and 5% and 3% and 2.2%
same,"Histopathology score, average","SARS-CoV-2 B1; 200 mg/kg/ BID, n=5",2.10
same,"Histopathology score, median","SARS-CoV-2 B1; 200 mg/kg/ BID, n=5",1.50
same,"Infectious virus in the lung (TCID50/mg), average Log 10","SARS-CoV-2 B1; 200 mg/kg/ BID, n=5",4.54 Log 10
same,"Infectious virus in the lung (TCID50/mg), median Log 10","SARS-CoV-2 B1; 200 mg/kg/ BID, n=5",4.21 Log 10
same,"Viral load (viral RNA) in the lung, average Log 10","SARS-CoV-2 B1; 200 mg/kg/ BID, n=5",9.78 Log 10
same,"Viral load (viral RNA) in the lung, median Log 10","SARS-CoV-2 B1; 200 mg/kg/ BID, n=5",9.74 Log 10
same,"Histopathology score, individual animal","SARS-CoV-2 B1; 200 mg/kg/ BID, 200 mg/kg",1.5 and 3
same,"Infectious virus in the lung (TCID50/mg), Log 10, individual animal","SARS-CoV-2 B1; 200 mg/kg/ BID, 200 mg/kg",4.01 Log 10 and 3.36 Log 10 and 6.13 Log 10 and 4.21 Log 10 and 4.99 Log 10
same,"Infectious virus in the lung, individual animal","SARS-CoV-2 B1; 200 mg/kg/ BID, 200 mg/kg",10248.12 TCID50/mg and 2288.60 TCID50/mg and 1353038.68 TCID50/mg and 16040.54 TCID50/mg and 98821.18 TCID50/mg
same,"Viral load (viral RNA) in the lung, Copy number, individual animal","SARS-CoV-2 B1; 200 mg/kg/ BID, 200 mg/kg",5.44E+09 and 8.11E+09 and 8.53E+09 and 4.38E+09 and 4.90E+09
same,"Viral load (viral RNA) in the lung, Log 10, individual animal","SARS-CoV-2 B1; 200 mg/kg/ BID, 200 mg/kg",9.74 Log 10 and 9.91 Log 10 and 9.93 Log 10 and 9.64 Log 10 and 9.69 Log 10
same,decline in antiviral parameters (in words),"SARS-CoV-2 B1; 300 mg per kg BID, reference",not significant
